In patent publication US9085582B2, “Benzotriazolodiazepine compounds inhibitors of bromodomains” (GlaxoSmithKline LLC, priority 2010, dated 2015):

What follows are compounds tested on IL-6 (assay: Measurement of LPS induced IL-6 secretion from whole blood). Conditions: LPS 200 ng/ml stimulated whole blood, 24 hours, IL-6 by immunoassay.
Type: cell-based
Experimental: Measurement of LPS Induced IL-6 Secretion from Whole Blood
Activation of monocytic cells by agonists of toll-like receptors such as bacterial lipopolysaccharide (LPS) results in production of key inflammatory mediators including IL-6. Such pathways are widely considered to be central to the pathophysiology of a range of auto-immune and inflammatory disorders.
Compounds to be tested are diluted to give a range of appropriate concentrations of which 1 ul of the diluted stocks is added to a 96 well plate. Following addition of whole blood (130 ul) the plates are incubated at 37 degrees (5% CO2) for 30 min before the addition of 10 ul of 2.8 ug/ml LPS, diluted in complete RPMI 1640 (final concentration=200 ng/ml), to give a total volume of 140 ul per well. After further incubation for 24 hours at 37 degrees, 140 ul of PBS are added to each well. The plates are sealed, shaken for 10 minutes and then centrifuged (2500 rpm×10 min). 100 ul of the supernatant are removed and IL-6 levels assayed by immunoassay (typically by MesoScale Discovery technology) either immediately or following storage at −20 degrees. Concentration response curves for each compound was generated from the data and an IC50 value was calculated

**Q.** For `CCNC(=O)C[C@@H]1N=C(c2ccc(Cl)cc2)c2cc(-c3ccccc3)ccc2-n2c(C)nnc21` [Example 1, 2-[(4S)-6-(4-Chlorophenyl)-1-methyl-8-phenyl-4H-[1,2,4]triazolo[4,3-a][1,4]benzodiazepin-4-yl]-N-ethylacetamide], which IC50 is on record?
**A.** The IC50 was ≤ 3.16 µM.

**Q.** `CCNC(=O)C[C@@H]1N=C(c2ccc(Cl)cc2)c2cc(-c3ccc(OC)cc3)ccc2-n2c(C)nnc21` [Example 3, 2-{(4S)-6-(4-Chlorophenyl)-1-methyl-8-[4-(methyloxy)phenyl]-4H-[1,2,4]triazolo[4,3-a][1,4]benzodiazepin-4-yl}-N-ethylacetamide] was tested. Which IC50 did it give?
**A.** Its IC50 is ≤ 3.16 µM.

**Q.** `CCNC(=O)C[C@@H]1N=C(c2ccc(Cl)cc2)c2cc(-c3ccn[nH]3)ccc2-n2c(C)nnc21` [Example 4, 2-[(4S)-6-(4-Chlorophenyl)-1-methyl-8-(1H-pyrazol-5-yl)-4H-[1,2,4]triazolo[4,3-a][1,4]benzodiazepin-4-yl]-N-ethylacetamide] was tested. Which IC50 did it give?
**A.** The IC50 was ≤ 3.16 µM.

**Q.** Which IC50 does the source give for `CCNC(=O)C[C@@H]1N=C(c2ccc(Cl)cc2)c2cc(-c3cn[nH]c3)ccc2-n2c(C)nnc21` [Example 5, 2-[(4S)-6-(4-Chlorophenyl)-1-methyl-8-(1H-pyrazol-4-yl)-4H-[1,2,4]triazolo[4,3-a][1,4]benzodiazepin-4-yl]-N-ethylacetamide] here?
**A.** The IC50 was ≤ 3.16 µM.

**Q.** `CCNC(=O)C[C@@H]1N=C(c2ccc(Cl)cc2)c2cc(-c3ccc(CN4CCCC4)cc3)ccc2-n2c(C)nnc21` [Example 13, (S)-2-(6-(4-Chlorophenyl)-1-methyl-8-(4-(pyrrolidin-1-ylmethyl)phenyl)-4H-benzo[f][1,2,4]triazolo[4,3-a][1,4]diazepin-4-yl)-N-ethylacetamide] was tested. Which IC50 did it give?
**A.** Its IC50 is ≤ 3.16 µM.
